Our source for the IC50 values is patent US7507727B2, “Substituted quinobenzoxazine analogs and methods of using thereof” (Cylene Pharmaceuticals, Inc., priority 2003, dated 2009).

The structures appear in SMILES notation.

The subject of one assay is HeLa cells. Put plainly: MTS cell proliferation and/or cytotoxicity assay. Type of assay: cell-based, Human. The note with it: Homo sapiens, HeLa, 72 h, concentration at which 50% of antiproliferative cell response is seen; 3 days incubation; read-out: MTS Data Hella. In short, it runs like this:
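HeLa cells seeded at 4,500 cells/well, exposed to compounds from day 1 for 3 days at 37 °C, 5% CO2. Viability by MTS/PMS (20:1) with 4 h incubation, absorbance at 490 nm. Values are concentrations giving 50% antiproliferative response.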
Turning to `N[C@H]1CCN(c2c(F)cc3c(=O)c(C(=O)NCCN4CCCC4)cn4c3c2Oc2ccccc2-4)C1` [compound 109], the IC50 amounted to 310 nM.

Consider `CN(C)CCCCNC(=O)c1cn2c3c(c(N4CC5CCCNC5C4)c(F)cc3c1=O)Oc1cc3ccccc3cc1-2` (stereo not shown) [compound 548], for which the IC50 came out at 100 nM.

On to `NCCCCNC(=O)c1cn2c3c(c(N4CC[C@@H](N)C4)c(F)cc3c1=O)Oc1cc3ccccc3cc1-2` [compound 528], for which the IC50 was 750 nM.

For `CN1CCCC1CCNC(=O)c1cn2c3c(c(NCCc4ccc(O)cc4)c(F)cc3c1=O)Oc1cc3ccccc3cc1-2` (stereo not shown) [compound 378], the IC50 is 2100 nM.

Turning to `CN1CCN(CCCNC(=O)c2cn3c4c(c(N5CC[C@@H](NC(=O)CCN6CCCCC6)C5)c(F)cc4c2=O)Oc2cc4c(cc2-3)oc2ccccc24)CC1` [compound 508], the IC50 was found to be 3200 nM.

Take `CN(C)CCCCNC(=O)c1cn2c3cc4c(cc3oc3c(NCCCCN(C)C)c(F)cc(c1=O)c32)c(=O)c1ccccc14` [compound 576]: the IC50 was 2100 nM.

Turning to `O=C(NCCCN1CCOCC1)c1cn2c3cc4c(=O)c5ccccc5c(=O)c4cc3oc3c(NCCN4CCCC4)c(F)cc(c1=O)c32` [compound 591], the IC50 was found to be 3300 nM.

Turning to `CN1CCCC1CCNC(=O)c1cn2c3c(c(NCCC4CCCN4C)c(F)cc3c1=O)Oc1cc3c(cc1-2)oc1ccccc13` (stereo not shown) [compound 372], the IC50 is 3400 nM.

Consider `CN1CCN(CC(=O)N[C@@H]2CCN(c3c(F)cc4c(=O)c(C(=O)NCCN5CCCC5)cn5c4c3Oc3cc4c(cc3-5)oc3ccccc34)C2)CC1` [compound 505], for which the IC50 was 3400 nM.

Regarding `N[C@@H]1CCN(c2c(F)cc3c(=O)c(C(=O)NCCN4CCCC4)cn4c3c2Oc2cc3ccccc3cc2-4)C1` [compound 565], the IC50 was 200 nM.

As for `CN1CCC(Nc2c(F)cc3c(=O)c(C(=O)NCCC4CCCN4C)cn4c3c2Oc2cc3ccccc3cc2-4)CC1` (stereo not shown) [compound 388], the IC50 amounted to 310 nM.

The assay is the same for the next values; noted with them: Homo sapiens, HeLa, HeLa cells, MTS; read-out: Hela MTS.
In the case of `CN1CCCC1CCNC(=O)c1cn2c3c(c(NCC4(O)CCCCC4)c(F)cc3c1=O)Oc1cc3ccccc3cc1-2` (stereo not shown) [compound 1665], the IC50 came out at 240 nM.

On to `O=C(NCCCN1CCOCC1)c1cn2c3c(c(N4CC5CCCNC5C4)c(F)cc3c1=O)Oc1cc3ccccc3cc1-2` (stereo not shown) [compound 1637], for which the IC50 is 100 nM.

In the case of `CN1CCCC1CCNC(=O)c1cn2c3c(c(N4CC5CCCNC5C4)c(F)cc3c1=O)Oc1cc3ccccc3cc1-2` (stereo not shown) [compound 1636], the IC50 came out at 150 nM.

For the molecule `O=C(NCCN1CCCC1)c1cn2c3c(c(N4CCC(c5cnccn5)C4)c(F)cc3c1=O)Oc1ccc(Cl)cc1-2` (stereo not shown) [compound 1795], the IC50 worked out at 500 nM.

In the case of `CN(C)CC(C)(C)CNC(=O)c1cn2c3c(c(N4CC5CCCNC5C4)c(F)cc3c1=O)Oc1cc3ccccc3cc1-2` (stereo not shown) [compound 1644], the IC50 came out at 650 nM.

As for `CN1CCCC1CCNC(=O)c1cn2c3c(c(NCCc4ccc(O)cc4)c(F)cc3c1=O)Oc1cc3ccccc3cc1-2` (stereo not shown) [compound 1681], the IC50 turned out to be 2100 nM.

As for `O=C(NCCN1CCCC1)c1cn2c3c(c(N4CC5CCCNC5C4)ccc3c1=O)Oc1cc3ccccc3cc1-2` (stereo not shown) [compound 1732], the IC50 was found to be 200 nM.

As for `N=C(N)NCCNC(=O)c1cn2c3c(c(N4CC5CCCNC5C4)c(F)cc3c1=O)Oc1cc3ccccc3cc1-2` (stereo not shown) [compound 1646], the IC50 amounted to 400 nM.

On to `CN1CCC(Nc2c(F)cc3c(=O)c(C(=O)NCCC4CCCN4C)cn4c3c2Oc2cc3ccccc3cc2-4)CC1` (stereo not shown) [compound 1690], for which the IC50 was determined as 310 nM.

With `CN1CCCC1CCNC(=O)c1cn2c3c(c(N)c(F)cc3c1=O)Oc1c-2ccc2ccccc12` (stereo not shown) [compound 1763], the IC50 came out at 3800 nM.

The assay is the same for the next values; noted with them: concentration at which 50% of antiproliferative cell response is seen; 3 days incubation; read-out: MTS Data Hella.
On to `O=C(NCCN1CCCC1)c1cn2c3c(c(N4CC5CCCNC5C4)c(F)cc3c1=O)Oc1cc3ccccc3cc1-2` (stereo not shown) [compound 581], for which the IC50 stood at 300 nM.

Regarding `CN1CCCC1CCNC(=O)c1cn2c3c(c(N4CCC(N)C4)c(F)cc3c1=O)Oc1cc3ccccc3cc1-2` (stereo not shown) [compound 472], the IC50 worked out at 3300 nM.

For another assay, the target named is c-Myc template DNA (c-myc quadruplex). The assay is described as follows: Quadruplex binding / stop assay (Taq polymerase arrest, capillary electrophoresis). The note with it: read-out: S DATA; Table 1D, stop assay data.
With `CN1CCCC1CCNC(=O)c1cn2c3c(c(NCC4(O)CCCCC4)c(F)cc3c1=O)Oc1cc3ccccc3cc1-2` (stereo not shown) [compound 1665], the IC50 amounted to 0.75 µM.

`O=C(NCCCN1CCOCC1)c1cn2c3c(c(N4CC5CCCNC5C4)c(F)cc3c1=O)Oc1cc3ccccc3cc1-2` (stereo not shown) [compound 1637]: the IC50 was found to be 0.375 µM.

As to `CN1CCCC1CCNC(=O)c1cn2c3c(c(N4CC5CCCNC5C4)c(F)cc3c1=O)Oc1cc3ccccc3cc1-2` (stereo not shown) [compound 1636], the IC50 was found to be 0.375 µM.

As for `O=C(NCCN1CCCC1)c1cn2c3c(c(N4CCC(c5cnccn5)C4)c(F)cc3c1=O)Oc1ccc(Cl)cc1-2` (stereo not shown) [compound 1795], the IC50 worked out at 2.9 µM.

In the case of `CN(C)CC(C)(C)CNC(=O)c1cn2c3c(c(N4CC5CCCNC5C4)c(F)cc3c1=O)Oc1cc3ccccc3cc1-2` (stereo not shown) [compound 1644], the IC50 amounted to 0.375 µM.

As to `CN1CCCC1CCNC(=O)c1cn2c3c(c(NCCc4ccc(O)cc4)c(F)cc3c1=O)Oc1cc3ccccc3cc1-2` (stereo not shown) [compound 1681], the IC50 came out at 0.75 µM.

Consider `O=C(NCCN1CCCC1)c1cn2c3c(c(N4CC5CCCNC5C4)ccc3c1=O)Oc1cc3ccccc3cc1-2` (stereo not shown) [compound 1732], for which the IC50 came to 0.375 µM.

`N=C(N)NCCNC(=O)c1cn2c3c(c(N4CC5CCCNC5C4)c(F)cc3c1=O)Oc1cc3ccccc3cc1-2` (stereo not shown) [compound 1646]: the IC50 was 0.64 µM.

As to `CN1CCC(Nc2c(F)cc3c(=O)c(C(=O)NCCC4CCCN4C)cn4c3c2Oc2cc3ccccc3cc2-4)CC1` (stereo not shown) [compound 1690], the IC50 was 0.75 µM.

Consider `CN1CCCC1CCNC(=O)c1cn2c3c(c(N)c(F)cc3c1=O)Oc1c-2ccc2ccccc12` (stereo not shown) [compound 1763], for which the IC50 stood at 1.5 µM.

Staying with this assay, now noted: read-out: Stop Data c-Myc μM; concentration at which 50% of the DNA was arrested (arrested:full-length 1:1).
For the molecule `O=C(NCCN1CCCC1)c1cn2c3c(c(N4CC5CCCNC5C4)c(F)cc3c1=O)Oc1cc3ccccc3cc1-2` (stereo not shown) [compound 581], the IC50 came out at 0.18 µM.

As for `N[C@H]1CCN(c2c(F)cc3c(=O)c(C(=O)NCCN4CCCC4)cn4c3c2Oc2ccccc2-4)C1` [compound 109], the IC50 worked out at 1.75 µM.

With `CN(C)CCCCNC(=O)c1cn2c3c(c(N4CC5CCCNC5C4)c(F)cc3c1=O)Oc1cc3ccccc3cc1-2` (stereo not shown) [compound 548], the IC50 is 0.375 µM.

For the molecule `NCCCCNC(=O)c1cn2c3c(c(N4CC[C@@H](N)C4)c(F)cc3c1=O)Oc1cc3ccccc3cc1-2` [compound 528], the IC50 came out at 0.375 µM.

As to `CN1CCCC1CCNC(=O)c1cn2c3c(c(N4CCC(N)C4)c(F)cc3c1=O)Oc1cc3ccccc3cc1-2` (stereo not shown) [compound 472], the IC50 was found to be 0.62 µM.

In the case of `CN1CCCC1CCNC(=O)c1cn2c3c(c(NCCc4ccc(O)cc4)c(F)cc3c1=O)Oc1cc3ccccc3cc1-2` (stereo not shown) [compound 378], the IC50 amounted to 0.75 µM.

Turning to `CN1CCN(CCCNC(=O)c2cn3c4c(c(N5CC[C@@H](NC(=O)CCN6CCCCC6)C5)c(F)cc4c2=O)Oc2cc4c(cc2-3)oc2ccccc24)CC1` [compound 508], the IC50 came to 0.375 µM.

`CN(C)CCCCNC(=O)c1cn2c3cc4c(cc3oc3c(NCCCCN(C)C)c(F)cc(c1=O)c32)c(=O)c1ccccc14` [compound 576]: the IC50 worked out at 0.18 µM.

`O=C(NCCCN1CCOCC1)c1cn2c3cc4c(=O)c5ccccc5c(=O)c4cc3oc3c(NCCN4CCCC4)c(F)cc(c1=O)c32` [compound 591]: the IC50 was 0.13 µM.

Take `CN1CCCC1CCNC(=O)c1cn2c3c(c(NCCC4CCCN4C)c(F)cc3c1=O)Oc1cc3c(cc1-2)oc1ccccc13` (stereo not shown) [compound 372]: the IC50 came to 0.75 µM.

Take `CN1CCN(CC(=O)N[C@@H]2CCN(c3c(F)cc4c(=O)c(C(=O)NCCN5CCCC5)cn5c4c3Oc3cc4c(cc3-5)oc3ccccc34)C2)CC1` [compound 505]: the IC50 turned out to be 0.375 µM.

Regarding `N[C@@H]1CCN(c2c(F)cc3c(=O)c(C(=O)NCCN4CCCC4)cn4c3c2Oc2cc3ccccc3cc2-4)C1` [compound 565], the IC50 came out at 0.25 µM.

Consider `CN1CCC(Nc2c(F)cc3c(=O)c(C(=O)NCCC4CCCN4C)cn4c3c2Oc2cc3ccccc3cc2-4)CC1` (stereo not shown) [compound 388], for which the IC50 was 0.75 µM.
